{"source": "patent US10865412B2", "about": "“Therapeutics targeting IGFBP7 for the treatment or prevention of heart failure and metabolic diseases” (Ottawa Heart Institute Research Corporation, priority 2016, dated 2020)", "molecules": {"B1": {"name": "recombinant IGFBP7 protein: recombinant human IGFBP7 protein with 6× His tag expressed in Expi293F cells (protein, UniProt Q16270 27-282, looked up)", "Insulin-like growth …": "SSSDTCGPCEPASCPPLPPLGCLLGETRDACGCCPMCARGEGEPCGGGGAGRGYCAPGMECVKSRKRRKGKAGAAAGGPGVSGVCVCKSRYPVCGSDGTTYPSGCQLRAASQRAESRGEKAITQVSKGTCEQGPSIVTPPKDIWNVTGAQVYLSCEVIGIPTPVLIWNKVKRGHYGVQRTELLPGDRDNLAIQTRGGPEKHEVTGWVLVSPLSKEDAGEYECHASNSQGQASASAKITVVDALHEIPVKKGEGAEL", "modifications": "6xHis tag", "notes": "recombinant human IGFBP7 protein with 6× His tag expressed in Expi293F cells"}}, "key": {"[1]": {"test_system": "IGF-1/Insulin induced AKT and Gsk3β activation", "assay": "IGF-1/Insulin induced Akt and Gsk3β activation in HCM with internal over-expression of IGFBP7", "assay_type": "cell-based, human", "details": "HCM transfected with IGFBP7 plasmid, inhibitor 500 nM for 1 h before IGF-1 or Insulin 15 min"}, "[2]": {"test_system": "IGF-1/Insulin induced AKT activation", "assay": "IGF-1/Insulin induced AKT/GSK3β activation (immunoblotting) in human cardiac myocytes", "assay_type": "cell-based", "details": "HCM with IGFBP7 siRNA, ppp pre-treatment 1 or 10 μM for 1 h, IGF-1 (100 ng/ml) 15 min", "procedure": "Indeed, in FIG. 9, human cardiac myocytes were treated with (−)control siRNA and IGFBP7 siRNA for 48 h, followed by replacement with basic medium (serum and growth factors withdrew) for 4 h. In FIG. 9(a), the cells were then stimulated with IGF1 (100 ng/ml) or Insulin (4 μg/ml) for 15 min, before lyses of the cell for immunoblotting. Representative immunoblotting of phosphor-AKT, total AKT, phosph-GSK3β and total GSK3β are shown. GAPDH was used as loading control. In FIG. 9(b), before adding IGF-1, cells were pre-treated with IGF-1R inhibitor Picropodophyllin (PPP) ppp at 1 or 10 μM for 1 h, and finally stimulated with IGF-1 (100 ng/ml) for 15 min. Representative immunoblotting of phosphor-AKT and total AKT showing reduced AKT activity in IGFBP7 knock down cells is shown. GAPDH was used as loading control. […] GAPDH were used as loading control.\nWhole-cell lysates from tissue and cell samples were prepared on ice with Cell Lysis Buffer (Cell Signaling, 9803) containing a Complete cocktail of proteases inhibitors (Roche Applied Science, 05892791001). […] The supernatants were collected and protein concentrations determined using the Bio-Rad Bradford protein assay (Bio-Rad, 500-0006). […] The intensity of the chemiluminescence signals were detected by using the ChemiDoc XRS+ System (Bio-Rad, 1708265) and quantified using Image Lab software (version 5.2; Bio-Rad). […]"}, "[3]": {"test_system": "IGF-1 Receptor β and Akt phosphorylation", "assay": "IGF-1 receptor-dependent signaling (immunoblotting) in IGFBP7 deficient and WT MEF", "assay_type": "cell-based", "details": "ppp 1 or 10 μM for 1 h, IGF-1 (100 ng/ml) 15 min"}, "IGFBP7 protein": {"test_system": "IGFBP7 protein", "assay": "IGFBP7 protein expression (immunoblotting) in rat neonatal cardiomyocytes treated with hypertrophic stimuli", "assay_type": "cell-based", "details": "vs solvent treated control", "procedure": "In order to investigate where Igfbp7 is localized under stress, immunofluorescent staining were used to visualize Igfbp7 in rNCM 2 and 24 hours post treatment. As shown in FIG. 3(b), Igfbp7 were evenly distributed in untreated control cells. Hypertrophic stimuli not only led to increased Igfbp7 expression, but also led to Igfbp7 being localized to the cell membrane. Co-immunostaining with FM1-43 as shown (FIG. 3(c)), upon isoproterenol treatment, Igfbp7 (red) not only moved to cell membrane region, but also co-localized with FM1-43 labeled membrane bound vesicle (green), indicating Igfbp7 was trapped into the membrane bound vesicles for secretion.\nNC represents solvent treated control. FIGS. 3(b) and 3(c) show representative confocal microscopy images. […] IGFBP7 was immunofluoresently stained with Alexa Fluor 555 labeled anti-IGFBP7 antibody.\nWhole-cell lysates from tissue and cell samples were prepared on ice with Cell Lysis Buffer (Cell Signaling, 9803) containing a Complete cocktail of proteases inhibitors (Roche Applied Science, 05892791001). Lysates were cleared by centrifugation at 12,000 rpm for 10 min. The supernatants were collected and protein concentrations determined using the Bio-Rad Bradford protein assay (Bio-Rad, 500-0006). 20 μg of protein lysate were separated by Bolt Bis-Tris Plus mini Gel System (ThermoFisher) and electrophoretically transferred to PVDF membranes (Bio-Rad, 162-0177). Membranes were incubated overnight at 4° C. with antibodies reactive to the following proteins: IGFBP7 (Abcam, ab171085, 1:1000), CTGF (Abcam, ab6992, 1:1000), 53BP1 (Santa Cruz Biotechnology, sc-22760, 1:200), p21 (Santa Cruz Biotechnology, sc-397, 1:200), Acetyl-p53 (Lys379) (Cell Signaling, #2570, 1:1000), p53 (1C12) (Cell Signaling, #2524, 1:1000), Phospho-IRS-1 (Ser612) (Cell Signaling, #3203, 1:500), Phospho-IRS-1 (Ser318) (Cell Signaling, #5610, 1:500), IRS-1 (Cell signaling, #3407, 1:500), Phospho-Akt (Ser473) (Cell Signaling, #4060, 1:1000), Phospho-Akt (Thr308) (Cell Signaling, #4056, 1:1000), Akt (pan) (Cell Signaling, #4691, 1:1000), Phospho-Erk1/2 (Thr202/Tyr204) (Cell Signaling, #4307, 1:1000), Erk1/2 (Cell Signaling, #9102, 1:1000), Phospho-GSK-3β (Ser9) (Cell Signaling, #9323, 1:1000), GSK-3β (Cell Signaling, #9315, 1:1000), Phospho-IGF-1 Receptor β ((Thy1135) (Cell Signaling, #3918, 1:500), IGF-1 Receptor β (Cell Signaling, #9750, 1:500). […] The intensity of the chemiluminescence signals were detected by using the ChemiDoc XRS+ System (Bio-Rad, 1708265) and quantified using Image Lab software (version 5.2; Bio-Rad). […]"}, "[4]": {"test_system": "IGF-1/Insulin induced AKT and Gsk3β activation", "assay": "Effect of external recombinant IGFBP7 protein on IGF-1/Insulin induced AKT and Gsk3β activation in HCM", "assay_type": "cell-based, human", "details": "HCM pretreated with recombinant protein for 2 h, then IGF-1 or insulin 15 min", "procedure": "HCM were pretreated with recombinant IGFBP7 protein at indicated concentration for 2 h, followed by IGF-1 or insulin induction for 15 min. Vinculin was used as loading control.\nWhole-cell lysates from tissue and cell samples were prepared on ice with Cell Lysis Buffer (Cell Signaling, 9803) containing a Complete cocktail of proteases inhibitors (Roche Applied Science, 05892791001). Lysates were cleared by centrifugation at 12,000 rpm for 10 min. The supernatants were collected and protein concentrations determined using the Bio-Rad Bradford protein assay (Bio-Rad, 500-0006). 20 μg of protein lysate were separated by Bolt Bis-Tris Plus mini Gel System (ThermoFisher) and electrophoretically transferred to PVDF membranes (Bio-Rad, 162-0177). […] The intensity of the chemiluminescence signals were detected by using the ChemiDoc XRS+ System (Bio-Rad, 1708265) and quantified using Image Lab software (version 5.2; Bio-Rad). […]\nTo generate IGFBP7 expression plasmid, human IGFBP7 CDS with 6× His Epitope tag added to the 3′-end were generated by GeneArt gene synthesis and subcloned into pcDNA3.4 TOPO TA Cloning vector (ThermoFisher) to make plasmid pcDNA3.4-hIGFBP7-6× His. […] Expression of secreted IGFBP7-6× His recombinant protein in culture media was monitored daily by immonoblotting with anti 6× His Epitope Tag antibody (ThermoFisher, MA1-21315). […]"}}}
{"molecule": "C[C@@]1(C(=O)Nc2ccc(F)nc2)CCCN1c1nc(Nc2cc(C3CC3)n[nH]2)c2cccn2n1", "note": "[BMS-754807]", "values": [{"measurement": "IGF-1/Insulin induced AKT and GSK3β activation increased by internal over-expression of IGFBP7", "setting": "[1]", "value": "blocked"}]}
{"molecule": "COc1cc([C@@H]2c3cc4c(cc3[C@H](O)[C@H]3COC(=O)[C@@H]23)OCO4)cc(OC)c1OC", "note": "[Picropodophyllin, picropodophyllin]", "values": [{"measurement": "AKT activation after IGF-1 stimulation in IGFBP7 knock down cells", "setting": "[2]", "value": "further reduced"}, {"measurement": "AKT phosphorylation in IGFBP7 deficient MEF", "setting": "[3]", "value": "further reduced"}, {"measurement": "AKT phosphorylation in WT MEF", "setting": "[3]", "value": "not in WT MEF"}, {"measurement": "IGF-1R phosphorylation in IGFBP7 deficient MEF", "setting": "[3]", "value": "further reduced"}]}
{"molecule": "CC(C)NCC(O)c1ccc(O)c(O)c1", "note": "(stereo not shown) [isoproterenol]", "values": [{"measurement": "IGFBP7 protein expression", "setting": "IGFBP7 protein; isoproterenol 100 nM", "value": "significantly up-regulated"}]}
{"molecule": "CNC[C@H](O)c1cccc(O)c1", "note": "[phenylephrine]", "values": [{"measurement": "IGFBP7 protein expression", "setting": "IGFBP7 protein; phenylephrine 200 nM", "value": "significantly up-regulated"}]}
{"molecule": "angiotensin II (DRVYIHPF; Angiotensin-2; UniProt P01019 25-32, looked up) [hypertrophic stimulus]", "values": [{"measurement": "IGFBP7 protein expression", "setting": "IGFBP7 protein; 100 nM angiotensin II", "value": "significantly up-regulated"}]}
{"molecule": "insulin", "values": [{"measurement": "IGFBP7 protein expression", "setting": "IGFBP7 protein; insulin 4 μg/ml", "value": "significantly up-regulated"}]}
{"molecule": "B1", "values": [{"measurement": "Effect on IGF-1/Insulin induced AKT and Gsk3β activation", "setting": "[4]", "value": "no observed effect"}]}
